In assay [1] the test system is yeast cultures and A. niger. In words: Food-grade preservation test (aloe vera gel challenge). Conditions: for Log Reduction Values, day 0: day 0, initial challenge 7 logs; for Log Reduction Values, day 0 / Log Reduction Values, day 2 / Log Reduction Values, day 7 / Log Reduction Values, day 14: aloe vera gel pH 4-4.5; for Log Reduction Values, day 0 / Log Reduction Values, day 2 / Log Reduction Values, day 7 / Log Reduction Values, day 14 / Log Reduction Values, day 21 / Log Reduction Values, day 28 / Log Reduction Values, day 35 / Log Reduction Values, day 42: LAE-HCl 1725 ppm, LAE-lactate 1500 ppm, lactic acid 1500 ppm; for Log Reduction Values, day 21: day 21 (re-challenge of 7 logs at day 21); for Log Reduction Values, day 28: day 28 (re-challenges of 7 logs at day 21 and day 28); for Log Reduction Values, day 35: day 35, after the second re-challenge; for Log Reduction Values, day 42: day 42, after two re-challenges. It counts as cell-based. The method, then:
Aloe vera gel was prepared as a 50% dilution and dispensed as 20 g per container. Inoculum was prepared as 48 hour yeast cultures in tripticase soy broth and A. niger suspension. The inoculum was pooled and 100 μl added to each container. The preservatives were prepared as 1% solutions and added to each pre-labeled container. The samples were well mixed and stored. Recoveries were carried out at selected intervals (1:10 dilutions plated with sabourad dextrose agar. Pre-labeled plates were incubated at 25-30° C. for 48-72 hours; the pH of the samples was in the range of 4-4.5. The plates were removed from incubation, counted cfu recorded and converted to log reduction values.
Thereafter, re-challenges of 7 logs each were made at day 21 and day 28.

In assay [2] the test system is bacteria that are part of the background flora of raw meat. In words: Antimicrobial activity of compounded films (beef loins in heat-sealed package). It is filed as cell-based. The method, then:
Two beef loins from a slaughterhouse were tested in a heat-sealed package simulating food packaging. The linear low density polyethylene film was compounded with 1% w/w LAE lactate biocidal salt of the invention. The log colony forming units (“CFU”) reduction values for bacteria that are part of the background flora of raw meat for both samples are 42 days indicate that there is a release of the salt of the invention from the polyethylene film to the surrounding beef surfaces.

Assay [3] concerns microbes such as bacteria, fungi and yeasts. Conditions: general statement, no test described; cited from earlier work.
The subject of assay [4] is naturally-occurring aerobic bacteria of beef purge. In words: Beef purge test. It is filed as cell-based. Conditions: for Avg. CFU/g / % Reduction: 48 hours, refrigerated, 5% w/w (0.5 g in 10 ml purge); for % Reduction: vs control. The method, then: Two beef tenderloins containing a large quantity of purge (i.e., liquid surrounding raw meats; meat soaker pads were used to trap such liquids to the extent possible) were purchased at a local store. The purge was isolated from the packages and transferred to a series of test tubes and 10 ml of purge were placed in each test tube. To the test tubes was added 0.5 g of either LAE hydrochloride or LAE mono-laurate salts. The samples were mixed in a vortex mixer and serial dilutions were then plated on petrifilm for readings at time zero. The test tubes were then placed in the refrigerator and were again plated at 24 hours and 48 hours. The beef purge contained naturally-occurring aerobic bacteria. The goal is to have >99% reduction of the bacteria after 48 hours. LAE hydrochloride was tested at 0.5 g/10 ml w/v. […] Note that LAE-monolaurate contains about 66% of the active LAE cation.

The next assay has as its system Staphylococcus aureus. In words: Antimicrobial activity of LAE laurate, minimum inhibitory concentration on inoculated soya agar plates. It is filed as cell-based. Conditions: Staphylococcus aureus (Gram positive), 37° C., 48 hours, salt dissolved in 1,2-pentanediol. As to the method: (§1) 0.1 g of N^α-lauroyl-L-arginine ethyl ester laurate (LAE laurate) was dissolved in 100 g of 1,2-pentanediol so as to provide a solution containing 1,000 parts per million of the salt. The solution was then applied to soya agar plates which had been previously inoculated with the bacteria indicated below and subsequently incubated at 37° C. for 48 hours.

A further assay relates to Bacillus subtilus. The description is as above. It is filed as cell-based. Conditions: Bacillus subtilus (Gram positive), 37° C., 48 hours, salt dissolved in 1,2-pentanediol. As to the method: as §1
A further assay relates to Enterobacter aerogenes. The description is as above. It is filed as cell-based. Conditions: Enterobacter aerogenes (Gram negative), 37° C., 48 hours, salt dissolved in 1,2-pentanediol. As to the method:
as §1

The mark [5] stands for this setting: day 42, film compounded with 1% w/w salt, vs. control.

`CC(O)C(=O)O.CCCCCCCCCCCC(=O)N[C@@H](CCCNC(=N)N)C(=O)OCC` [LAE lactate]: the “preservation compared with LAE-HCl” value in assay [1] (after the two re-challenges) is listed as “superior to LAE-HCl”. Also, in assay [1], the “Log Reduction Values, day 0” value was determined as 0; the “Log Reduction Values, day 2” value amounted to 3.7; the “Log Reduction Values, day 7” value was 6.0; the “Log Reduction Values, day 14” value was 6.0. In addition, in assay [1], the “Log Reduction Values, day 21” value is listed as 6.0; the “Log Reduction Values, day 28” value is 3.9; the “Log Reduction Values, day 35” value turned out to be 4.0; the “Log Reduction Values, day 42” value is given as 0.7. Also, the “Log CFU/g, day 7” value in assay [2] (day 7, beef loin in linear low density polyethylene film compounded with 1% w/w salt) is given as 2.31 Log CFU/g. For the same compound, the “Log CFU/g, day 14” value in assay [2] (day 14, beef loin in linear low density polyethylene film compounded with 1% w/w salt) is given as 3.68 Log CFU/g. Besides, the “Log CFU/g, day 21” value in assay [2] (day 21, beef loin in linear low density polyethylene film compounded with 1% w/w salt) is 3.97 Log CFU/g. For the same compound, in assay [2] (day 28, beef loin in linear low density polyethylene film compounded with 1% w/w salt), the “Log CFU/g, day 28” value turned out to be 5.32 Log CFU/g. Besides, the “Log CFU/g, day 42” value in assay [2] (day 42, beef loin in linear low density polyethylene film compounded with 1% w/w salt) worked out at 5.57 Log CFU/g. Further, in assay [2] (setting [5]), the “Day 42 % reduction vs. control” value amounted to 97.9% and the “Day 42 log reduction vs. control” value was found to be 1.67.
`CCCCCCCCCCCC(=O)N[C@@H](CCCNC(=N)N)C(=O)OCC` [LAE, N^α-lauroyl-L-arginine ethyl ester]: in assay [3], the “biocidal ions needed to inhibit or kill microbes” value is recorded as 2-128 ppm.
On to `CCCCCCCCCCCC(=O)N[C@@H](CCCN=C(N)N)C(=O)OCC.Cl` [LAE-HCl], for which, in assay [4], the “Avg. CFU/g” value is given as below 1.000E+02 CFU/g and the “% Reduction” value is 99.999%. In addition, in assay [1], the “Log Reduction Values, day 0” value was 0; the “Log Reduction Values, day 2” value is given as 4.7; the “Log Reduction Values, day 7” value is 6.0; the “Log Reduction Values, day 14” value was 5.8. In addition, in assay [1], the “Log Reduction Values, day 21” value is 6.0; the “Log Reduction Values, day 28” value was found to be 1.7; the “Log Reduction Values, day 42” value was 0.0.
On to `CC(O)C(=O)O` (stereo not drawn) [Lactic acid], for which, in assay [1], the “Log Reduction Values, day 2” value came to 1.0; the “Log Reduction Values, day 7” value is on record as 0.2; the “Log Reduction Values, day 14” value is 0.0; the “Log Reduction Values, day 35” value stood at 0.0. The “Log Reduction Values, day 42” value in assay [1] worked out at 0.0.
For the compound `[H]/N=C(\N/C(=N/[H])NCCCCCCNC(=N)NC(=N)Nc1ccc(Cl)cc1)Nc1ccc(Cl)cc1` [chlorhexidine], the “biocidal ions needed to inhibit or kill microbes” value in assay [3] is 2-8 ppm.
Consider `Oc1cc(Cl)ccc1Oc1ccc(Cl)cc1Cl` [triclosan], for which the “biocidal ions needed to inhibit or kill microbes” value in assay [3] is recorded as 2-40 ppm.
For “N^α-lauroyl-L-arginine ethyl ester laurate [LAE laurate]”, in assay [4], the “Avg. CFU/g” value is given as 2.82E+03 CFU/g. Besides, the “% Reduction” value in assay [4] was 99.96%. Further, the “performance compared with LAE-HCl” value in assay [4] (after 48 hours, based on the test requirements (>99% reduction)) is “performed as well as LAE-HCl”. The “Minimum Inhibitory Concentration” value in the assay with Staphylococcus aureus was below 40 ppm; in the assay with Bacillus subtilus, below 25 ppm; in the assay with Enterobacter aerogenes, below 45 ppm.

(Values after patent US10226043B2, “Controlled release biocidal salts” (Nevada Naturals Inc., priority 2005, dated 2019).)
